Values after ≈ are worked out from the molar mass of the structure shown.
system: Enterococcus faecalis ATCC 29212; test: MIC testing against Enterococcus faecalis ATCC 29212; type: cell-based; settings: not given
Description: Minimum Inhibitory Concentration (MIC) Testing Compounds of this invention were tested for antimicrobial activity by susceptibility testing in liquid or on solid media. MICs for compounds against each strain were determined by the broth microdilution or agar dilution method according to the guidelines of the Clinical Laboratories and Standards Institute, formerly the National Committee for Clinical Laboratory Standards (Clinical Laboratories and Standards Institute. Methods for Dilution Antimicrobial Susceptibility Tests for Bacteria That Grow Aerobically; Approved Standard—Seventh Edition. Document M7-A7. CLSI, Wayne, Pa., 2006; Clinical Laboratories and Standards Institute. Methods for Antimicrobial Susceptibility Testing of Anaerobic Bacteria; Approved Standard—Sixth Edition. Document M11-A6. CLSI, Wayne, Pa., 2004).

Compound	MICs against Enterococcus faecalis, Activity
tert-butyl 3-((4-(2-(3-ethylureido)-6-fluorobenzo[d]thiazol-5-yl)-5-yl)-2,2′-dioxo-2H-1,4′-bipyridin-1′(2′H)-yl)methyl)piperidine-1-carboxylate [Example 64]	B (MICs of 0.25-1 μg/ml)

same assay, conditions: ATCC29212, read-out: MICs against Enterococcus faecalis, Activity

Compound	MIC [µg/mL]
CCNC(=O)Nc1nc2cc(-c3cnc(-n4ccccc4=O)cn3)ccc2s1 [Example 10, 1-ethyl-3-(5-(5-(2-oxopyridin-1(2H)-yl)pyrazin-2-yl)benzo[d]thiazol-2-yl)urea]	2 to 16 (≈ 5.1 to 40.8 µM)
CCNC(=O)Nc1nc2cc(-c3cc(C)n(Cc4cccnc4)c(=O)c3)ccc2s1 [Example 34, 1-ethyl-3-(5-(6-methyl-2-oxo-1-(pyridin-3-ylmethyl)-1,2-dihydropyridin-4-yl)benzo[d]thiazol-2-yl)urea]	0.25 to 1 (≈ 0.596 to 2.38 µM)
CCNC(=O)Nc1nc2cc(-c3cc(C)n(CCOC)c(=O)c3)ccc2s1 [Example 31, 1-ethyl-3-(5-(1-(2-methoxyethyl)-6-methyl-2-oxo-1,2-dihydropyridin-4-yl)benzo[d]thiazol-2-yl)urea]	0.25 to 1 (≈ 0.647 to 2.59 µM)
CCNC(=O)Nc1nc2cc(-c3ccc(CC(=O)NC)nc3)c(F)cc2s1 [Example 68, 2-{5-[2-(3-ethyl-ureido)-6-fluoro-benzothiazol-5-yl]-pyridin-2-yl}-N-methyl-acetamide]	2 to 16 (≈ 5.16 to 41.3 µM)
CCNC(=O)Nc1nc2cc(-c3cnn(C(C)C(=O)OC)c3)c(F)cc2s1 (stereo not shown) [Example 47, methyl 2-(4-(2-(3-ethylureido)-6-fluorobenzo[d]thiazol-5-yl)-1H-pyrazol-1-yl)propanoate]	2 to 16 (≈ 5.11 to 40.9 µM)
CCNC(=O)Nc1nc2cc(-c3cccnc3)c(OC)cc2s1 [Example 71, 1-ethyl-3-(6-methoxy-5-(pyridin-3-yl)benzo[d]thiazol-2-yl)urea]	0.25 to 1 (≈ 0.761 to 3.05 µM)
CCNC(=O)Nc1nc2cc(-c3ccn(C)c(=O)c3)c(C)cc2s1 [Example 74, 1-ethyl-3-(6-methyl-5-(1-methyl-2-oxo-1,2-dihydropyridin-4-yl)benzo[d]thiazol-2-yl)urea]	0.25 to 1 (≈ 0.73 to 2.92 µM)
CCNC(=O)Nc1nc2cc(-c3cnc(N4CCCC(C(=O)OC)C4)nc3)c(F)cc2s1 (stereo not shown) [Example 45, methyl 1-(5-(2-(3-ethylureido)-6-fluorobenzo[d]thiazol-5-yl)pyrimidin-2-yl)piperidine-3-carboxylate]	0.25 to 1 (≈ 0.545 to 2.18 µM)
CCNC(=O)Nc1nc2cc(-c3cc(OC)ccn3)c(F)cc2s1 [Example 56, 1-ethyl-3-[6-fluoro-5-(4-methoxy-pyridin-2-yl)-benzothiazol-2-yl]-urea]	2 to 16 (≈ 5.77 to 46.2 µM)
CCNC(=O)Nc1nc2cc(-c3cncc4ccccc34)ccc2s1 [Example 20, 1-ethyl-3-(5-(isoquinolin-4-yl)benzo[d]thiazol-2-yl)urea]	0.25 to 1 (≈ 0.718 to 2.87 µM)
CCNC(=O)Nc1nc2cc(-c3ccc(CC(=O)NC)nc3)ccc2s1 [Example 2, 2-{5-[2-(3-Ethyl-ureido)-benzothiazol-5-yl]-pyridin-2-yl}-N-methyl-acetamide]	2 to 16 (≈ 5.41 to 43.3 µM)
CCNC(=O)Nc1nc2cc(-c3ccn(C)c(=O)c3)c(F)cc2s1 [Example 61, 1-ethyl-3-(6-fluoro-5-(1-methyl-2-oxo-1,2-dihydropyridin-4-yl)benzo[d]thiazol-2-yl)urea]	0.25 to 1 (≈ 0.722 to 2.89 µM)
CCNC(=O)Nc1nc2cc(-c3cc(C)n(CCCN(C)C)c(=O)c3)c(F)cc2s1 [Example 54, 1-(5-(1-(3-(dimethylamino)propyl)-6-methyl-2-oxo-1,2-dihydropyridin-4-yl)-6-fluorobenzo[d]thiazol-2-yl)-3-ethylurea]	2 to 16 (≈ 4.63 to 37.1 µM)
CCNC(=O)Nc1nc2cc(-c3cnc(-n4ccnc4)nc3)ccc2s1 [Example 28, 1-(5-(2-(1H-imidazol-1-yl)pyrimidin-5-yl)benzo[d]thiazol-2-yl)-3-ethylurea]	2 to 16 (≈ 5.47 to 43.8 µM)
CCNC(=O)Nc1nc2cc(-c3cnc4c(c3)OCCN4C)ccc2s1 [Example 19, 1-ethyl-3-(5-(4-methyl-3,4-dihydro-2H-pyrido[3,2-b][1,4]oxazin-7-yl)benzo[d]thiazol-2-yl)urea]	0.25 to 1 (≈ 0.677 to 2.71 µM)
CCNC(=O)Nc1nc2cc(-c3cc(C)n(C(C)c4ccccn4)c(=O)c3)ccc2s1 (stereo not shown) [Example 36, 1-ethyl-3-(5-(6-methyl-2-oxo-1-(1-(pyridin-2-yl)ethyl)-1,2-dihydropyridin-4-yl)benzo[d]thiazol-2-yl)urea]	2 to 16 (≈ 4.61 to 36.9 µM)
CCNC(=O)Nc1nc2cc(-c3cnc(CO)n3C)ccc2s1 [Example 11, 1-ethyl-3-(5-(2-(hydroxymethyl)-1-methyl-1H-imidazol-5-yl)benzo[d]thiazol-2-yl)urea]	2 to 16 (≈ 6.03 to 48.3 µM)
CCNC(=O)Nc1nc2cc(-c3cncs3)c(F)cc2s1 [Example 69, 1-ethyl-3-(6-fluoro-5-(thiazol-5-yl)benzo[d]thiazol-2-yl)urea]	2 to 16 (≈ 6.2 to 49.6 µM)
CCNC(=O)Nc1nc2cc(-c3c[nH]c4ncccc34)c(F)cc2s1 [Example 48, 1-ethyl-3-(6-fluoro-5-(1H-pyrrolo[2,3-b]pyridin-3-yl)benzo[d]thiazol-2-yl)urea]	0.25 to 1 (≈ 0.703 to 2.81 µM)
CCNC(=O)Nc1nc2cc(-c3cnc(N4CCC(C(=O)O)CC4)nc3)c(F)cc2s1 [Example 44, 1-(5-(2-(3-ethylureido)-6-fluorobenzo[d]thiazol-5-yl)pyrimidin-2-yl)piperidine-4-carboxylic acid]	< 0.25

Compound	MIC [µg/mL]
CCNC(=O)Nc1nc2cc(-c3cc(C)n(Cc4ccccn4)c(=O)c3)ccc2s1 [Example 35, 1-ethyl-3-(5-(6-methyl-2-oxo-1-(pyridin-2-ylmethyl)-1,2-dihydropyridin-4-yl)benzo[d]thiazol-2-yl)urea]	0.25 to 1 (≈ 0.596 to 2.38 µM)
CCNC(=O)Nc1nc2cc(-c3cnc(O)s3)ccc2s1 [Example 23, 1-ethyl-3-(5-(2-hydroxythiazol-5-yl)benzo[d]thiazol-2-yl)urea]	2 to 16 (≈ 6.24 to 49.9 µM)
CCNC(=O)Nc1nc2cc(-c3ccn(Cc4ncccc4OC)c(=O)c3)c(F)cc2s1 [Example 79, 1-Ethyl-3-{6-fluoro-5-[1-(3-methoxy-pyridin-2-ylmethyl)-2-oxo-1,2-dihydro-pyridin-4-yl]-benzothiazol-2-yl}-urea]	< 0.25
CCNC(=O)Nc1nc2cc(-c3ccc(NC(C)=O)nc3)c(F)cc2s1 [Example 38, N-(5-(2-(3-ethylureido)-6-fluorobenzo[d]thiazol-5-yl)pyridin-2-yl)acetamide]	0.25 to 1 (≈ 0.669 to 2.68 µM)
CCNC(=O)Nc1nc2cc(-c3ccc(NC(C)=O)nc3)cnc2s1 [Example 76, N-(5-(2-(3-ethylureido)thiazolo[5,4-b]pyridin-6-yl)pyridin-2-yl)acetamide]	2 to 16 (≈ 5.61 to 44.9 µM)
CCNC(=O)Nc1nc2cc(-c3ccc(=O)n(CC(=O)OCC)c3)ccc2s1 [Example 12, ethyl 2-(5-(2-(3-ethylureido)benzo[d]thiazol-5-yl)-2-oxopyridin-1(2H)-yl)acetate]	2 to 16 (≈ 4.99 to 40 µM)
CCNC(=O)Nc1nc2cc(-c3ccn(CCN(C)C)c(=O)c3)c(F)cc2s1 [Example 63, 1-(5-(1-(2-(dimethylamino)ethyl)-2-oxo-1,2-dihydropyridin-4-yl)-6-fluorobenzo[d]thiazol-2-yl)-3-ethylurea]	2 to 16 (≈ 4.96 to 39.7 µM)
CCNC(=O)Nc1nc2cc(-c3ccc4c(=O)c(C(=O)OCC)cn(C)c4c3)ccc2s1 [Example 37, ethyl 7-(2-(3-ethylureido)benzo[d]thiazol-5-yl)-1-methyl-4-oxo-1,4-dihydroquinoline-3-carboxylate]	2 to 16 (≈ 4.44 to 35.5 µM)
CCNC(=O)Nc1nc2cc(-c3cnc(S(C)(=O)=O)nc3)c(F)cc2s1 [Example 70, 1-ethyl-3-(6-fluoro-5-(2-(methylsulfonyl)pyrimidin-5-yl)benzo[d]thiazol-2-yl)urea]	2 to 16 (≈ 5.06 to 40.5 µM)
CCNC(=O)Nc1nc2cc(-c3cc(C)n(Cc4cccc(C)n4)c(=O)c3)ccc2s1 [Example 33, 1-ethyl-3-(5-(6-methyl-1-((6-methylpyridin-2-yl)methyl)-2-oxo-1,2-dihydropyridin-4-yl)benzo[d]thiazol-2-yl)urea]	0.25 to 1 (≈ 0.577 to 2.31 µM)
CCNC(=O)Nc1nc2cc(-c3ccc(C(=O)OC)nc3)ccc2s1 [Example 15, methyl 5-(2-(3-ethylureido)benzo[d]thiazol-5-yl)picolinate]	2 to 16 (≈ 5.61 to 44.9 µM)
CCNC(=O)Nc1nc2cc(-c3ccc4nnnn4c3)ccc2s1 [Example 7, 1-ethyl-3-(5-(tetrazolo[1,5-a]pyridin-6-yl)benzo[d]thiazol-2-yl)urea]	2 to 16 (≈ 5.89 to 47.1 µM)
CCNC(=O)Nc1nc2cc(-c3cnc(N4CCC(C(=O)OC)CC4)nc3)c(F)cc2s1 [Example 43, methyl 1-(5-(2-(3-ethylureido)-6-fluorobenzo[d]thiazol-5-yl)pyrimidin-2-yl)piperidine-4-carboxylate]	0.25 to 1 (≈ 0.545 to 2.18 µM)
CCNC(=O)Nc1nc2cc(-c3cn[nH]c3)ccc2s1 [Example 21, 1-(5-(1H-pyrazol-4-yl)benzo[d]thiazol-2-yl)-3-ethylurea]	2 to 16 (≈ 6.96 to 55.7 µM)
CCNC(=O)Nc1nc2cc(-c3ccc(C(N)=NO)nc3)c(F)cc2s1 [Example 60, 5-(2-(3-ethylureido)-6-fluorobenzo[d]thiazol-5-yl)-N′-hydroxypicolinimidamide]	0.25 to 1 (≈ 0.668 to 2.67 µM)
CCNC(=O)Nc1nc2cc(-c3ccn(C4CCNC4)c(=O)c3)c(F)cc2s1 (stereo not shown) [Example 67, 1-ethyl-3-(6-fluoro-5-(2-oxo-1-(pyrrolidin-3-yl)-1,2-dihydropyridin-4-yl)benzo[d]thiazol-2-yl)urea]	2 to 16 (≈ 4.98 to 39.9 µM)
CCNC(=O)Nc1nc2cc(-c3cnc(N4CCN(CCO)CC4)nc3)c(F)cc2s1 [Example 41, 1-ethyl-3-(6-fluoro-5-(2-(4-(2-hydroxyethyl)piperazin-1-yl)pyrimidin-5-yl)benzo[d]thiazol-2-yl)urea]	2 to 16 (≈ 4.49 to 35.9 µM)
CCNC(=O)Nc1nc2cc(-c3ccc(CO)nc3)c(F)cc2s1 [Example 65, 1-ethyl-3-(6-fluoro-5-(6-(hydroxymethyl)pyridin-3-yl)benzo[d]thiazol-2-yl)urea]	0.25 to 1 (≈ 0.722 to 2.89 µM)
CCNC(=O)Nc1nc2cc(-c3cnn(C)c3)ccc2s1 [Example 18, 1-ethyl-3-(5-(1-methyl-1H-pyrazol-4-yl)benzo[d]thiazol-2-yl)urea]	2 to 16 (≈ 6.64 to 53.1 µM)
